Values quoted from earlier work in patent publication US20090233885A1, “Compositions and Methods for Fat Reduction” (priority 2006, published 2009).

Assays:
[1] = total administered amount per treatment

Row | Substance | total administered amount above which cholinergic side effects (nausea, vomiting, diarrhea, flushing, sweating, bradycardia) occur [1] | cell specificity of effect (adipose and muscle cells)
1 | phosphatidylcholine [PC] | exceeds 2000 mg per treatment | 
2 | sodium deoxycholate [DC] |  | nonspecific effects on both adipose and muscle cells
